Test [1] relates to maternal HIV+ sera (antibodies). Nature of the test: RIA / ELISA binding of maternal HIV+ sera to gp120 and gp41 peptides (Example 3). The arrangement: species or system human. The essentials: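 Maternal sera, diluted 1:50 and 1:500, were bound overnight at 4°C to peptides immobilized at 10 μg/ml (pH 9.6 carbonate) and blocked with 1% BSA. Read-out was ¹²⁵I-labelled anti-human IgG counts or HRP-TMB OD450. Signal with peptide minus without was expressed relative to seronegative serum.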

In test [2] the test system is maternal sera (antibodies). Nature of the test: ELISA peptide-binding of maternal sera (Example 6). Set-up: species or system human. The essentials:
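HIV-1 envelope peptides averaging 16 amino acids, covering external and transmembrane glycoprotein, were probed by ELISA. Third-trimester maternal sera, classed as transmitter or non-transmitter by child diagnosis, were each run on at least 40 peptides. Values give percent of sera binding a peptide.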

With DREINNYTSLIHSLI [Peptide 40], the “Binding of maternal HIV+ serum to peptide (sera/NHS ratio)” value (from here on “Binding … (sera/NHS ratio)”) in test [1] (Serum No. 1, Non-Transmission Group) is “- (specific OD450 or cpm of sera sample binding to peptide divided by the specific OD450 or cpm of NHS sample binding to peptide, which value is less than 2)”; in test [1] (Serum No. 2, Non-Transmission Group), “- (specific OD450 or cpm of sera sample binding to peptide divided by the specific OD450 or cpm of NHS sample binding to peptide, which value is less than 2)”; in test [1] (Serum No. 3, Non-Transmission Group), “- (specific OD450 or cpm of sera sample binding to peptide divided by the specific OD450 or cpm of NHS sample binding to peptide, which value is less than 2)”; in test [1] (Serum No. 4, Transmission Group), “- (specific OD450 or cpm of sera sample binding to peptide divided by the specific OD450 or cpm of NHS sample binding to peptide, which value is less than 2)”; in test [1] (Serum No. 5, Transmission Group) it was “- (specific OD450 or cpm of sera sample binding to peptide divided by the specific OD450 or cpm of NHS sample binding to peptide, which value is less than 2)”; in test [1] (Serum No. 6, Non-Transmission Group), “- (specific OD450 or cpm of sera sample binding to peptide divided by the specific OD450 or cpm of NHS sample binding to peptide, which value is less than 2)”. The “Binding … (sera/NHS ratio)” value is reported as “- (specific OD450 or cpm of sera sample binding to peptide divided by the specific OD450 or cpm of NHS sample binding to peptide, which value is less than 2)” in test [1] (Serum No. 7, Non-Transmission Group); “- (specific OD450 or cpm of sera sample binding to peptide divided by the specific OD450 or cpm of NHS sample binding to peptide, which value is less than 2)” in test [1] (Serum No. 8, Non-Transmission Group); “- (specific OD450 or cpm of sera sample binding to peptide divided by the specific OD450 or cpm of NHS sample binding to peptide, which value is less than 2)” in test [1] (Serum No. 9, Non-Transmission Group); “- (specific OD450 or cpm of sera sample binding to peptide divided by the specific OD450 or cpm of NHS sample binding to peptide, which value is less than 2)” in test [1] (Serum No. 10, Transmission Group); “- (specific OD450 or cpm of sera sample binding to peptide divided by the specific OD450 or cpm of NHS sample binding to peptide, which value is less than 2)” in test [1] (Serum No. 11, Non-Transmission Group); “- (specific OD450 or cpm of sera sample binding to peptide divided by the specific OD450 or cpm of NHS sample binding to peptide, which value is less than 2)” in test [1] (Serum No. 12, Non-Transmission Group). Also, the “Binding … (sera/NHS ratio)” value in test [1] (Serum No. 13, Transmission Group) was “- (specific OD450 or cpm of sera sample binding to peptide divided by the specific OD450 or cpm of NHS sample binding to peptide, which value is less than 2)”; in test [1] (Serum No. 14, Transmission Group), “- (specific OD450 or cpm of sera sample binding to peptide divided by the specific OD450 or cpm of NHS sample binding to peptide, which value is less than 2)”; in test [1] (Serum No. 15, Transmission Group) it was “- (specific OD450 or cpm of sera sample binding to peptide divided by the specific OD450 or cpm of NHS sample binding to peptide, which value is less than 2)”; in test [1] (Serum No. 16, Non-Transmission Group) it was “- (specific OD450 or cpm of sera sample binding to peptide divided by the specific OD450 or cpm of NHS sample binding to peptide, which value is less than 2)”; in test [1] (Serum No. 17, Non-Transmission Group), “- (specific OD450 or cpm of sera sample binding to peptide divided by the specific OD450 or cpm of NHS sample binding to peptide, which value is less than 2)”; in test [1] (Serum No. 18, Non-Transmission Group), “- (specific OD450 or cpm of sera sample binding to peptide divided by the specific OD450 or cpm of NHS sample binding to peptide, which value is less than 2)”. Besides, the “Binding … (sera/NHS ratio)” value in test [1] (Serum No. 19, Transmission Group) is listed as “- (specific OD450 or cpm of sera sample binding to peptide divided by the specific OD450 or cpm of NHS sample binding to peptide, which value is less than 2)”; in test [1] (Serum No. 20, Non-Transmission Group) it was “- (specific OD450 or cpm of sera sample binding to peptide divided by the specific OD450 or cpm of NHS sample binding to peptide, which value is less than 2)”. Moreover, the “Number of Non-Transmitters which bound to peptide” value in test [2] (Non-Transmitters, N = 12) is 1. In addition, in test [2] (Non-Transmitters, N = 12), the “Percent of Non-Transmitters which bound to peptide” value is 8.3%. The “Number of Transmitters which bound to peptide” value in test [2] (Transmitters, N = 4) is reported as 0. Also, the “Percent of Transmitters which bound to peptide” value in test [2] (Transmitters, N = 4) worked out at 0%.

The values above are taken from patent US5556744A, “Methods and compositions for diagnosing and treating certain HIV infected patients” (The Trustees of the University of Pennsylvania, priority 1994, dated 1996).
